Some test systems named below: ACHN renal; BT-549 breast; COLO 205 colon; HCT-15 colon; IGROV1 ovarian; NCI-H226 lung; SK-MEL-2 melanoma; SN12C renal; SNB-75 CNS; NCI-H460 lung.
What all share (assay): inhibition of tumour cell growth, NCI panel, 48 h

Several values for one entry are separate records, joined by “and”; a condition that tells them apart may be missing. Equal entries are not always repeated.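 Briefly, cells in 96-well plates were exposed to five compound concentrations for 48 h, and endpoints were estimated by linear interpolation. Here, GI50 denotes the concentration required for 50% inhibition of growth. Definition used: TGI = concentration required for complete inhibition of growth.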

As for `O=C(NC(=O)c1c(F)cccc1F)Nc1cccc(Oc2ncc(Cl)cn2)c1`, the TGI in the assay on ACHN renal, in the assay with BT-549 breast, in the assay with COLO 205 colon, in the assay on HCT-15 colon, in the assay on IGROV1 ovarian and with NCI-H226 lung was above 100 µM in each case. Further, the TGI with SK-MEL-2 melanoma was above 100 µM; with SN12C renal it was above 100 µM; with SNB-75 CNS it was 60.3 µM.
With `CNC(=O)OCc1nc(SSC(C)(C)C)n(C)c1COC(=O)NC`, the TGI with ACHN renal was determined as 8.71 µM; in the assay with BT-549 breast it was 2.83 µM; in the assay with COLO 205 colon it was 3.28 µM; with HCT-15 colon it was 4.14 µM; with IGROV1 ovarian, 22.9 µM; in the assay with NCI-H226 lung, 28.3 µM. Also, the TGI with NCI-H460 lung amounted to 26.6 µM; in the assay on SK-MEL-2 melanoma, 19.5 µM; with SN12C renal, 13.7 µM; in the assay with SNB-75 CNS, 22.4 µM.
For the molecule `CCN(CC)CCCC(CCl)Nc1ccnc2cc(Cl)ccc12` (centres undefined), the GI50 in the assay with ACHN renal was 36 µM and 6.74 µM; in the assay on BT-549 breast, 22.4 µM and 15.2 µM; in the assay with COLO 205 colon, 29.5 µM and 15.1 µM; with HCT-15 colon it was 24.9 µM and 23.9 µM; with IGROV1 ovarian it was 70.5 µM and 69.1 µM; in the assay on NCI-H226 lung it was 34.7 µM and 3.99 µM. Moreover, the GI50 in the assay with NCI-H460 lung is 19.6 µM and 24.3 µM; in the assay with SK-MEL-2 melanoma it was 25.4 µM and 35 µM; with SN12C renal it was 52.1 µM and 48 µM; in the assay with SNB-75 CNS, 26.1 µM and 29.5 µM. In addition, the TGI in the assay with ACHN renal was above 100 µM; with BT-549 breast, 60.2 µM and 49.1 µM; in the assay with COLO 205 colon it was above 100 µM; in the assay on HCT-15 colon it was above 100 µM; in the assay with IGROV1 ovarian, above 100 µM; in the assay on NCI-H226 lung, 85.2 µM and > 39.1 µM. For the same molecule, the TGI in the assay on NCI-H460 lung is 56.4 µM and > 100 µM; in the assay with SK-MEL-2 melanoma it was 57.5 µM and > 100 µM; with SN12C renal it was above 100 µM; in the assay on SNB-75 CNS it was 59.2 µM and > 73.6 µM.
`Oc1ccc2ccccc2c1N=Nc1cccc2ccccc12`: the TGI in the assay on ACHN renal, with BT-549 breast, with COLO 205 colon, in the assay with HCT-15 colon, in the assay on IGROV1 ovarian and with NCI-H226 lung was above 100 µM each time. Further, the TGI was above 100 µM in the assay on NCI-H460 lung; above 100 µM in the assay with SK-MEL-2 melanoma; above 100 µM in the assay with SN12C renal; > 100 µM and 80.4 µM in the assay with SNB-75 CNS.
`CC(=O)OC1OC([C@H]2c3cccc(O)c3C(=O)c3c(O)cc(C)cc32)C(O)C(O)C1O` (some centres undefined): the GI50 with ACHN renal was 0.0729 µM; in the assay with BT-549 breast, 0.356 µM; in the assay with COLO 205 colon, 0.0421 µM; in the assay on HCT-15 colon, 0.0385 µM; in the assay on IGROV1 ovarian, 0.224 µM; with NCI-H226 lung, below 0.01 µM. In addition, the GI50 in the assay on NCI-H460 lung is 0.105 µM; in the assay on SK-MEL-2 melanoma, 0.0962 µM; in the assay with SN12C renal, below 0.0259 µM; with SNB-75 CNS it was 0.0297 µM. The TGI was 0.437 µM in the assay on ACHN renal; 1.03 µM in the assay on BT-549 breast; 2 µM in the assay on HCT-15 colon; above 100 µM in the assay with IGROV1 ovarian; 0.0455 µM in the assay with NCI-H226 lung; 1.41 µM in the assay on NCI-H460 lung. Besides, the TGI in the assay with SK-MEL-2 melanoma stood at 2.63 µM; in the assay with SNB-75 CNS, 2.74 µM.
With `N[C@H](C(=O)O)[C@@H]1CC(Cl)=NO1`, the GI50 with ACHN renal is 28.4 µM; in the assay on BT-549 breast, 7.4 µM; with COLO 205 colon, 43.6 µM; in the assay with HCT-15 colon it was 8.33 µM; in the assay with IGROV1 ovarian, 4.41 µM; with NCI-H226 lung it was 39.9 µM and 10.8 µM. Also, the GI50 with NCI-H460 lung is 3.22 µM; with SK-MEL-2 melanoma it was 27.1 µM; with SN12C renal, 53.7 µM. The TGI with ACHN renal is above 1000 µM; in the assay on BT-549 breast it was above 1000 µM; with COLO 205 colon, above 1000 µM; in the assay on HCT-15 colon it was above 912 µM; in the assay with IGROV1 ovarian, 465 µM; in the assay with NCI-H226 lung, above 316 µM. The TGI with NCI-H460 lung was above 1000 µM; in the assay on SK-MEL-2 melanoma, 355 µM; with SN12C renal, above 1000 µM; with SNB-75 CNS it was above 1000 µM.
Consider `CSC(SC)(C(=O)O)c1cc(-c2c(Cl)cccc2Cl)no1`, for which the TGI is above 100 µM with ACHN renal; above 100 µM in the assay with BT-549 breast; above 100 µM with COLO 205 colon; 41.9 µM in the assay on HCT-15 colon; above 100 µM in the assay with IGROV1 ovarian; above 100 µM in the assay on NCI-H226 lung. Further, the TGI in the assay with NCI-H460 lung, with SK-MEL-2 melanoma, in the assay with SN12C renal and in the assay with SNB-75 CNS was above 100 µM in each case.
Turning to `COc1ccc2c(c1)OC1=C(C(=O)OC1)C2c1cc(OC)c2c(c1)OCCO2` (centres undefined), the GI50 with ACHN renal was 0.122 µM; in the assay with BT-549 breast it was 0.131 µM; in the assay on COLO 205 colon, 0.0362 µM; in the assay on HCT-15 colon it was 0.0531 µM; in the assay with IGROV1 ovarian, 0.128 µM; in the assay on NCI-H460 lung it was 0.0408 µM. Further, the GI50 in the assay with SK-MEL-2 melanoma was 0.0483 µM; in the assay with SN12C renal, 0.0972 µM; in the assay on SNB-75 CNS, 0.0346 µM. Moreover, the TGI in the assay with ACHN renal is above 100 µM; with BT-549 breast it was 28.8 µM; in the assay with COLO 205 colon it was 0.13 µM; in the assay with HCT-15 colon it was above 100 µM; in the assay on IGROV1 ovarian, above 100 µM; in the assay on NCI-H460 lung, above 100 µM. Also, the TGI in the assay on SK-MEL-2 melanoma, in the assay with SN12C renal and in the assay on SNB-75 CNS was above 100 µM each time.
Consider `O=C(Oc1ccc[nH]c1=O)c1cc([N+](=O)[O-])cc([N+](=O)[O-])c1`, for which the GI50 in the assay on ACHN renal is 93.3 µM; in the assay with BT-549 breast, above 100 µM; with COLO 205 colon, above 100 µM; in the assay on HCT-15 colon, 81 µM; in the assay on IGROV1 ovarian it was above 100 µM; with NCI-H226 lung, above 100 µM. Moreover, the GI50 in the assay with NCI-H460 lung was 34 µM; in the assay with SK-MEL-2 melanoma, above 100 µM; in the assay with SN12C renal, above 100 µM; with SNB-75 CNS, above 100 µM. For the same molecule, the TGI in the assay on ACHN renal, in the assay on BT-549 breast, in the assay with COLO 205 colon, with HCT-15 colon, in the assay with IGROV1 ovarian and in the assay on NCI-H226 lung was above 100 µM in each case. In addition, the TGI with NCI-H460 lung, with SK-MEL-2 melanoma, with SN12C renal and in the assay with SNB-75 CNS was above 100 µM in each case.

Source of the values: PubChem BioAssay (NCI).
